Assay results as given in the supplement of paper PMC4862054.

Legend:
Settings in all cases: incubation time: 72 h
Hs578T [1] = test: normalised response (% of control), CellTiter-Glo; higher = more viable cells (100 = DMSO, 0 = benzethonium chloride kill control)
Method: (§1)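 DSRT, 72 h incubation, CellTox Green / CellTiter-Glo readout. Signal is normalised to DMSO and benzethonium chloride controls. Value is the normalised response at the highest dose.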

BT-549 [2] = test: as above
Method: as §1

CAL-120 [3] = test: as above
Method: as §1

CAL-85-1 [4] = test: as above
Method: as §1

HCC1937 [5] = test: as above
Method: as §1

HCC1143 [6] = test: as above
Method: as §1

CAL-148 [7] = test: as above
Method: as §1

HDQ-P1 [8] = test: as above
Method: as §1

MFM-223 [9] = test: as above
Method: as §1

MDA-MB-231 [10] = test: as above
Method: as §1

BT-474 [11] = test: as above
Method: as §1

MDA-MB-436 [12] = test: as above
Method: as §1

CAL-51 [13] = test: as above
Method: as §1

MDA-MB-468 [14] = test: as above
Method: as §1

MCF-10A [15] = test: as above
Method: as §1

HCC1599 [16] = test: as above
Method: as §1

DU-4475 [17] = test: as above
Method: as §1

SK-BR-3 = test: as above
Method: as §1

MDA-MB-453 [18] = test: as above
Method: as §1

Hs578T [19] = test: normalised response (% of control), CellTox Green; higher = less cell death (100 = DMSO, 0 = benzethonium chloride kill control)
How it was run: (§2)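 After 72 h with compound in 384-well plates, breast cancer cell lines seeded as 20 µl suspension were read for CellTox Green fluorescence at 485/520 nm. CellTiter-Glo luminescence was then read after 10 min at room temperature. Compound was present at 5 concentrations in 10-fold steps over a 10,000-fold range set per compound, and plates were normalised to 0.1 % DMSO (100) and a positive kill control (0). Values are normalised signals, each at a single concentration.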

BT-549 [20] = test: as above
How it was run: as §2

CAL-120 [21] = test: as above
How it was run: as §2

CAL-85-1 [22] = test: as above
How it was run: as §2

HCC1937 [23] = test: as above
How it was run: as §2

HCC1143 [24] = test: as above
How it was run: as §2

CAL-148 [25] = test: as above
How it was run: as §2

HDQ-P1 [26] = test: as above
How it was run: as §2

MFM-223 [27] = test: as above
How it was run: as §2

MDA-MB-231 [28] = test: as above
How it was run: as §2

BT-474 [29] = test: as above
How it was run: as §2

MDA-MB-436 [30] = test: as above
How it was run: as §2

CAL-51 [31] = test: as above
How it was run: as §2

MDA-MB-468 [32] = test: as above
How it was run: as §2

MCF-10A [33] = test: as above
How it was run: as §2

HCC1599 [34] = test: as above
How it was run: as §2

DU-4475 [35] = test: as above
How it was run: as §2

MDA-MB-453 [36] = test: as above
How it was run: as §2

| Structure (SMILES) | normalised response (Hs578T [1]) | normalised response (BT-549 [2]) | normalised response (CAL-120 [3]) | normalised response (CAL-85-1 [4]) | normalised response (HCC1937 [5]) | normalised response (HCC1143 [6]) | normalised response (CAL-148 [7]) | normalised response (HDQ-P1 [8]) | normalised response (MFM-223 [9]) | normalised response (MDA-MB-231 [10]) | normalised response (BT-474 [11]) | normalised response (MDA-MB-436 [12]) | normalised response (CAL-51 [13]) | normalised response (MDA-MB-468 [14]) | normalised response (MCF-10A [15]) | normalised response (HCC1599 [16]) | normalised response (DU-4475 [17]) | normalised response (SK-BR-3) | normalised response (MDA-MB-453 [18]) | normalised response (Hs578T [19]) | normalised response (BT-549 [20]) | normalised response (CAL-120 [21]) | normalised response (CAL-85-1 [22]) | normalised response (HCC1937 [23]) | normalised response (HCC1143 [24]) | normalised response (CAL-148 [25]) | normalised response (HDQ-P1 [26]) | normalised response (MFM-223 [27]) | normalised response (MDA-MB-231 [28]) | normalised response (BT-474 [29]) | normalised response (MDA-MB-436 [30]) | normalised response (CAL-51 [31]) | normalised response (MDA-MB-468 [32]) | normalised response (MCF-10A [33]) | normalised response (HCC1599 [34]) | normalised response (DU-4475 [35]) | normalised response (MDA-MB-453 [36]) |
| --- | --- | --- | --- | --- | --- | --- | --- | --- | --- | --- | --- | --- | --- | --- | --- | --- | --- | --- | --- | --- | --- | --- | --- | --- | --- | --- | --- | --- | --- | --- | --- | --- | --- | --- | --- | --- | --- |
| C=CC(=O)Nc1cc2c(Nc3ccc(F)c(Cl)c3)ncnc2cc1OCCCN1CCOCC1 [Canertinib] (10000 nM) | 17.4% | 4.73% | 26.6% | 3.6% | 14.5% | 24.3% | 42.9% | 1.5% | 26.4% | 5% | 15.9% | 22.2% | 3.06% | 2.49% | 0.13% | 66.4% | 74.1% | 24.4% | 25.5% | -21.7% | 55.1% | 31% | -11% | 80.3% | 84.5% | 65.4% | 37.8% | 26.9% | 13.5% | 55.4% | 87.1% | 5.47% | -36.9% | -28.8% | 111% | 89.5% | 87.6% |
| COc1cc2c(Oc3ccc4[nH]c(C)cc4c3F)ncnc2cc1OCCCN1CCCC1 [Cediranib] (1000 nM) | 84.7% | 83.6% | 90.4% | 100% | 91.7% | 99.8% | 110% | 80.8% | 56.6% | 105% | 104% | 100% | 128% | 90.8% | 70.5% | 92.8% | 95.5% | 106% | 103% | 127% | 97.4% | 88.1% | 78.4% | 114% | 123% | 101% | 102% | 91.4% | 117% | 95.7% | 94.6% | 96.8% | 153% | 91.5% | 112% | 103% | 105% |
| Cc1ccc(-c2cc(C(F)(F)F)nn2-c2ccc(S(N)(=O)=O)cc2)cc1 [Celecoxib] (10000 nM) | 97.3% | 104% | 106% | 102% | 101% | 108% | 99.9% | 89.8% | 93.5% | 96.8% | 92.9% | 104% | 118% | 103% | 108% | 109% | 101% | 97.4% | 94.7% | 68.1% | 113% | 101% | 104% | 116% | 68.4% | 101% | 105% | 95.2% | 104% | 93% | 99.8% | 107% | 62.7% | 82.2% | 103% | 99.5% | 99% |
| O=C(/C=C/c1cccnc1)NCCCCC1CCN(C(=O)c2ccccc2)CC1 [Daporinad] (1000 nM) | 6.81% | 103% | 14% | 14.3% | 17.5% | 13.2% | 51.5% | 15.9% | 4.89% | 19.2% | 19.9% | 37.5% | 138% | 0.79% | 9.14% | 0.76% | 4.62% | 110% | 14.8% | 73.1% | 91.1% | 101% | 93.5% | 67.6% | 105% | 98.8% | 108% | 88.1% | 117% | 97.5% | 97.3% | 108% | 49.6% | 93.1% | 90.5% | 101% | 99.5% |
